Assay results reported in ChEMBL document CHEMBL1201862, “PubChem BioAssay data set” (2004).
Calls of active or inactive are those of the source.

Experiments:
[1] = test system: HEK293; assay: inhibition of NOD1-driven NF-kB reporter – cell-based, luminescence, uHTS, primary screen (AID 1578); type: functional; conditions: Homo sapiens
[2] = test system: HEK293; assay: cells; type: functional, cell-based; conditions: Homo sapiens
[3] = test system: HEK293; assay: cells; type: functional, cell-based; conditions: Homo sapiens; remark: listed apart in the source
[4] = target: Nucleotide-binding oligomerization domain-containing protein 2 (Homo sapiens, UniProt Q9HC29); assay: inhibition of NOD2-driven NF-kB reporter – cell-based, luminescence, uHTS, HEK293 (AID 1566); type: functional
[5] = test system: HEK293; assay: NOD2 signaling inhibitors in MDP-stimulated cells, cell-based, uHTS, luminescence (AID 2001); type: functional; conditions: Homo sapiens
[6] = test system: HEK293; assay: cells; type: functional, cell-based; conditions: Homo sapiens; remark: listed apart in the source
[7] = target: T1, Microphthalmia-associated transcription factor (Homo sapiens, UniProt O75030); assay: reducers of TRPM1 reporter luminescence, concentration series – cell-based, SK-MEL-5, cherry-picked, set 3, MITF inhibitor project, dose response (AID 493073); type: functional;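 also: SK-MEL-5 melanoma cells with luciferase driven by the MITF target TRPM1 promoter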
T1 sequence (O75030 whole entry): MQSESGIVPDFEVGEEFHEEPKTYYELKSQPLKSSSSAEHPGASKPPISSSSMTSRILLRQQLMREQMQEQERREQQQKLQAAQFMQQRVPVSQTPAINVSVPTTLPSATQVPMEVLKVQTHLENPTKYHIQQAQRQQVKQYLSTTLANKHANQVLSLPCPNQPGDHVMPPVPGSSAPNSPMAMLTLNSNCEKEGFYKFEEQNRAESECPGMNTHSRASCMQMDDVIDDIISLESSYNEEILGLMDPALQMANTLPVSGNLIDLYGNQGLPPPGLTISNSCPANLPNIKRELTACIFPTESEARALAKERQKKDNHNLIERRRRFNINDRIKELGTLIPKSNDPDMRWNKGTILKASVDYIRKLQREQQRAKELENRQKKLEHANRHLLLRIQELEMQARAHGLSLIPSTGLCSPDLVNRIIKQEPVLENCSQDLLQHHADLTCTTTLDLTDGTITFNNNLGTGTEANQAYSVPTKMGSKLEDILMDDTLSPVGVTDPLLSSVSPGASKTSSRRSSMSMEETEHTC

[8] = target: T2, Replicative DNA helicase DnaB (Mycobacterium tuberculosis, UniProt P9WMR3); assay: DnaB intein splicing inhibitors, dose response, biochemical, cell-free fluorescence (AID 449749); type: functional
T2 sequence (P9WMR3 whole entry): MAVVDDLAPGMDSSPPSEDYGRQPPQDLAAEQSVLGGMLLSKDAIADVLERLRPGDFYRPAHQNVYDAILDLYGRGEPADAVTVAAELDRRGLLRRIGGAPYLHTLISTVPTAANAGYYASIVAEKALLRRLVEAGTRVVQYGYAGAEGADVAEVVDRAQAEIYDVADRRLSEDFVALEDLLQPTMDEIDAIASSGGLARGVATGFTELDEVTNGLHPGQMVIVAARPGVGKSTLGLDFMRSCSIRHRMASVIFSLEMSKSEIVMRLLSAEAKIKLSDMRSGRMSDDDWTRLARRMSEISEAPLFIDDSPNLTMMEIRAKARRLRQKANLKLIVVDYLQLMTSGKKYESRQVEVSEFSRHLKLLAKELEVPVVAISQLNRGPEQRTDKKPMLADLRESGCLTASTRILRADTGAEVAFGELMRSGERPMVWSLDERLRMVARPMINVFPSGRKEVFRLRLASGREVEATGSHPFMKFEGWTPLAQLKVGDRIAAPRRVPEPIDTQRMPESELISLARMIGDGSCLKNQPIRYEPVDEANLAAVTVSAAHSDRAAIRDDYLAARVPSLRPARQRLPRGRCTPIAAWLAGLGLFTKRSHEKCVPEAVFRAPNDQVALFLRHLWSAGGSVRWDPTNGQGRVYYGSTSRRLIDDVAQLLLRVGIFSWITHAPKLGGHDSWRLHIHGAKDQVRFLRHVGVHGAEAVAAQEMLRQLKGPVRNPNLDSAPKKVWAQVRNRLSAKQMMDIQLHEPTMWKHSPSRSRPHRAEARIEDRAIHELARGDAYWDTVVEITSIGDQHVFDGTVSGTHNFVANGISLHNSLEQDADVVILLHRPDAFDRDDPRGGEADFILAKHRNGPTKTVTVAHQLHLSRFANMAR

[9] = target: T3, Protein RecA (Mycobacterium tuberculosis, UniProt P9WHJ3); assay: Fluorescence Cell-Free Homogeneous Dose Retest to Identify Inhibitors of RecA-Intein Splicing Activity. [Related pubchem assays (depositor defined):AID2097, AID2223, AID489010, AID492950]; type: functional
T3 sequence (P9WHJ3 whole entry): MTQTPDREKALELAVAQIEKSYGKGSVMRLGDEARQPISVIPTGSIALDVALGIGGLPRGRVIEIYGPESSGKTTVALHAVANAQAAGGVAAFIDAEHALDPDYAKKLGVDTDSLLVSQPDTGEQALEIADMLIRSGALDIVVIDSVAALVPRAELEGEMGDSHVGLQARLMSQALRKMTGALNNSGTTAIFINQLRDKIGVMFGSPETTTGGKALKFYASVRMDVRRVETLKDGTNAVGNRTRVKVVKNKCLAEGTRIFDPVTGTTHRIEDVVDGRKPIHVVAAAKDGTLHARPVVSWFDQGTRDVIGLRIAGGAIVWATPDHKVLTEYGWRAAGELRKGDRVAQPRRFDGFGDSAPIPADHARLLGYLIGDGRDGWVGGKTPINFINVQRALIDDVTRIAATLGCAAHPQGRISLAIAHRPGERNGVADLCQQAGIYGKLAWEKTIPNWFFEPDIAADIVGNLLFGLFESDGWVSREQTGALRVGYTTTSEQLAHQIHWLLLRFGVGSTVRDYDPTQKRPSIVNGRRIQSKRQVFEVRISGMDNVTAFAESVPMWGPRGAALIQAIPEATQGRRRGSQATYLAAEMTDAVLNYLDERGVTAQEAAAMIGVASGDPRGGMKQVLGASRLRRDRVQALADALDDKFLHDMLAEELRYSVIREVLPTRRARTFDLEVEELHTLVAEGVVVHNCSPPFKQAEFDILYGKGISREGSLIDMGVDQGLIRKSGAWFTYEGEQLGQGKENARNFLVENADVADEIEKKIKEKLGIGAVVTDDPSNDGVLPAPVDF

[10] = target: DNA dC->dU-editing enzyme APOBEC-3A (Homo sapiens, UniProt P31941); assay: Dose Response confirmation of small molecule APOBEC3A DNA Deaminase Inhibitors via a fluorescence-based single-stranded DNA deaminase assay. [Related pubchem assays (depositor defined):AID493011, AID493024]; type: functional
[11] = target: DNA dC->dU-editing enzyme APOBEC-3G (Homo sapiens, UniProt Q9HC16); type: functional;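 also: Dose-response counterscreen measuring inhibition of APOBEC3G DNA deaminase activity, run while confirming APOBEC3A inhibitors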
[12] = target: T4, Protein Rev (Human immunodeficiency virus type 1 group M subtype B (isolate HXB2)(HIV-1), UniProt P04618); assay: blockers of HIV Rev/RRE RNA complex – biochemical, fluorescence polarization, HIV-1, dose response (AID 434976); parameters: species or system Human immunodeficiency virus 1
T4 sequence (P04618 whole entry): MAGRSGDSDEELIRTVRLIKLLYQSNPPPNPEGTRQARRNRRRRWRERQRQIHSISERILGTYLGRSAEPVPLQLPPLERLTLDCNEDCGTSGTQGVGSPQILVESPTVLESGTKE

[13] = target: T5, Female germline-specific tumor suppressor gld-1 (Caenorhabditis elegans, UniProt Q17339); assay: blockers of GLD-1/TGE RNA complex formation – biochemical, fluorescence polarization, C. elegans, dose response (AID 2802);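 also: fluorescence polarization of labeled TGE RNA bound by purified gld-1 protein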
T5 sequence (Q17339 whole entry): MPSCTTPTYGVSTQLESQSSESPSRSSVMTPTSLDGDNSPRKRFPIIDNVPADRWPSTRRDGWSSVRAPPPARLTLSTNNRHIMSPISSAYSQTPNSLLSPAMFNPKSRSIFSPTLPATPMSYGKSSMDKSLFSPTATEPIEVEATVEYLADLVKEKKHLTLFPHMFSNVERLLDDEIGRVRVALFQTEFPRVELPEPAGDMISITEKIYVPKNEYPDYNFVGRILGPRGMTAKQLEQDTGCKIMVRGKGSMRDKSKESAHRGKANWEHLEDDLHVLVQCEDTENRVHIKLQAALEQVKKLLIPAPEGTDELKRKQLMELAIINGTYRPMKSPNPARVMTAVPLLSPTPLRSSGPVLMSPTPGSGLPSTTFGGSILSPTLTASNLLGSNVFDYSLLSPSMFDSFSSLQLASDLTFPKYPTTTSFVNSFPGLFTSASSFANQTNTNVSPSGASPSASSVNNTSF

[14] = target: T6, Polyadenylate-binding protein 1 (Homo sapiens, UniProt P11940); assay: MLLE binding blockers, Cy5 peptide tracer – biochemical, fluorescence polarization, Cy5-PAM2 peptide, secondary, miRNA deadenylation inhibitor project, dose response (AID 602260); type: functional; conditions: read-out: IC50_Mean
[15] = target: T6, Polyadenylate-binding protein 1; assay: MLLE domain peptide-binding blockers, IC50 – biochemical, fluorescence polarization, FITC-PAM2 peptide, dose response (AID 602259); type: functional; conditions: read-out: IC50_Mean
[16] = target: T7, Kappa-type opioid receptor (Homo sapiens, UniProt P41145); type: functional
[17] = target: Beta-galactosidase (Escherichia coli, UniProt Q8VNN2); type: functional
[18] = target: T7, Kappa-type opioid receptor; type: functional; remark: listed apart in the source
[19] = target: Heat shock protein HSP 90-alpha (Homo sapiens, UniProt P07900); type: functional, organism-based

T6 sequence (P11940 whole entry, the tested form may be a part): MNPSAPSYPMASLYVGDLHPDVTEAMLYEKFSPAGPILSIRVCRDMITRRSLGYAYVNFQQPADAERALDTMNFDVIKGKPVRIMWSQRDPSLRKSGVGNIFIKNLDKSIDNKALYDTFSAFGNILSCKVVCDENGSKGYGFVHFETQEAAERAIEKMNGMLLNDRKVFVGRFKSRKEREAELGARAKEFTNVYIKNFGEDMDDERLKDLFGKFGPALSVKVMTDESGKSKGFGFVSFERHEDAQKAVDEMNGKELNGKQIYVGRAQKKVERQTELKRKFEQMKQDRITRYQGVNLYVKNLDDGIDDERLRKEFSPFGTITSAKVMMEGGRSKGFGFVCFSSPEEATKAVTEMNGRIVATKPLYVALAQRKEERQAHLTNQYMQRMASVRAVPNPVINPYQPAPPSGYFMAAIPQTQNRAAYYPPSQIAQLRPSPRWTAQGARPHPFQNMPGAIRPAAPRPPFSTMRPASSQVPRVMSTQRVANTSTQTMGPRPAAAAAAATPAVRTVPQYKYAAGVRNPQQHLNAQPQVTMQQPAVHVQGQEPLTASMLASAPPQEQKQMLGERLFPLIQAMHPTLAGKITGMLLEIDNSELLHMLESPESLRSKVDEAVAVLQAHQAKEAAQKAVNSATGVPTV
T7 sequence (P41145 whole entry): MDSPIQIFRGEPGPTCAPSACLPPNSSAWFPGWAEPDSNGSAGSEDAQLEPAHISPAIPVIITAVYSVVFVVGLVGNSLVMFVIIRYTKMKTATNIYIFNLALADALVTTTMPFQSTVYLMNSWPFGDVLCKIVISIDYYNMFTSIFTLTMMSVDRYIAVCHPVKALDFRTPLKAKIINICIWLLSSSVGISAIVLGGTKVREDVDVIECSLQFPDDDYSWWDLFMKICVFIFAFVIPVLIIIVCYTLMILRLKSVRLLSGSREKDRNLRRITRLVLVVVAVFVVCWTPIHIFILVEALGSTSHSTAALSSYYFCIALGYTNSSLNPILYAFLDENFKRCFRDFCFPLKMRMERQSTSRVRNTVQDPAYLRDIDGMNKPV
Chain of Nucleotide-binding oligomerization domain-containing protein 2 (Q9HC29 whole entry, the tested form may be a part): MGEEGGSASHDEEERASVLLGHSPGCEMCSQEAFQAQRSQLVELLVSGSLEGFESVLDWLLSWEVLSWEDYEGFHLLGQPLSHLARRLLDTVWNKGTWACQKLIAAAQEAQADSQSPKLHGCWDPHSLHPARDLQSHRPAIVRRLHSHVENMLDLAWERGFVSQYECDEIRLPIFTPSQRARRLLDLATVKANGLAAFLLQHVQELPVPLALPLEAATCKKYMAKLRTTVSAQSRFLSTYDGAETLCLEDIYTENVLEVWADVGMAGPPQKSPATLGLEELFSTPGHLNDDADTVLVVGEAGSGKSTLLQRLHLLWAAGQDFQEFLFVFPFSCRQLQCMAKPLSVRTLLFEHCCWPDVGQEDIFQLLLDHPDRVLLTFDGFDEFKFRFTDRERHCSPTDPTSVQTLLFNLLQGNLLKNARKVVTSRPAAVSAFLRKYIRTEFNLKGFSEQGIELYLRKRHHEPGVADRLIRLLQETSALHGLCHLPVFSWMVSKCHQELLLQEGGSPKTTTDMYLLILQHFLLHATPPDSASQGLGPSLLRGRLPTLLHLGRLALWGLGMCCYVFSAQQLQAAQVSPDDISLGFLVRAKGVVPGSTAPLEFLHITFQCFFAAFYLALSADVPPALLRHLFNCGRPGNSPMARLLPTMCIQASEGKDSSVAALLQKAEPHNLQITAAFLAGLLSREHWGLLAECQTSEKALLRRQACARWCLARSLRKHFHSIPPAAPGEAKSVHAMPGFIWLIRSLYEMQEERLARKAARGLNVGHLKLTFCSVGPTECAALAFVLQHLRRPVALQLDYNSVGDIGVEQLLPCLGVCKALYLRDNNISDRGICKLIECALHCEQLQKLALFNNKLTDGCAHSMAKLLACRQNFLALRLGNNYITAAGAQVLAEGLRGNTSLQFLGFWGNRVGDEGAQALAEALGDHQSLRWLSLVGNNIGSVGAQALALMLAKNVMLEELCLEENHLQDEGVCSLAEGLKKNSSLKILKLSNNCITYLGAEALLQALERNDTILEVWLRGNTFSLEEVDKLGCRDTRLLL
Chain of DNA dC->dU-editing enzyme APOBEC-3A (P31941 whole entry): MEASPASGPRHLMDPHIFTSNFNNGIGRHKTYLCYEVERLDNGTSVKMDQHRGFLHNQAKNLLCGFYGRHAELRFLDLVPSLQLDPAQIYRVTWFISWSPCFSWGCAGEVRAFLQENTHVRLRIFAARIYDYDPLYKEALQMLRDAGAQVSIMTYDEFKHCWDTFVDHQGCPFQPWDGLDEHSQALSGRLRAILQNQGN
Chain of DNA dC->dU-editing enzyme APOBEC-3G (Q9HC16 whole entry): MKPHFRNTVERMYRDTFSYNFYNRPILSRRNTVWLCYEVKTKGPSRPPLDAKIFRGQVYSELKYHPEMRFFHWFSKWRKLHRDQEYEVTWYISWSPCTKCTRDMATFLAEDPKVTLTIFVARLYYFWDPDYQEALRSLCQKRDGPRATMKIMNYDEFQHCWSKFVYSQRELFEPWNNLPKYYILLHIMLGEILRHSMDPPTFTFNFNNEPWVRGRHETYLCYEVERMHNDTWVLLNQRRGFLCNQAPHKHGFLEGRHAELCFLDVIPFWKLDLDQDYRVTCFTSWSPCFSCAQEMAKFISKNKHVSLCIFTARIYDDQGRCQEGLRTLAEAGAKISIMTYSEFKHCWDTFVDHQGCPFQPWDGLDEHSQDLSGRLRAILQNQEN
Chain of Beta-galactosidase (Q8VNN2 whole entry): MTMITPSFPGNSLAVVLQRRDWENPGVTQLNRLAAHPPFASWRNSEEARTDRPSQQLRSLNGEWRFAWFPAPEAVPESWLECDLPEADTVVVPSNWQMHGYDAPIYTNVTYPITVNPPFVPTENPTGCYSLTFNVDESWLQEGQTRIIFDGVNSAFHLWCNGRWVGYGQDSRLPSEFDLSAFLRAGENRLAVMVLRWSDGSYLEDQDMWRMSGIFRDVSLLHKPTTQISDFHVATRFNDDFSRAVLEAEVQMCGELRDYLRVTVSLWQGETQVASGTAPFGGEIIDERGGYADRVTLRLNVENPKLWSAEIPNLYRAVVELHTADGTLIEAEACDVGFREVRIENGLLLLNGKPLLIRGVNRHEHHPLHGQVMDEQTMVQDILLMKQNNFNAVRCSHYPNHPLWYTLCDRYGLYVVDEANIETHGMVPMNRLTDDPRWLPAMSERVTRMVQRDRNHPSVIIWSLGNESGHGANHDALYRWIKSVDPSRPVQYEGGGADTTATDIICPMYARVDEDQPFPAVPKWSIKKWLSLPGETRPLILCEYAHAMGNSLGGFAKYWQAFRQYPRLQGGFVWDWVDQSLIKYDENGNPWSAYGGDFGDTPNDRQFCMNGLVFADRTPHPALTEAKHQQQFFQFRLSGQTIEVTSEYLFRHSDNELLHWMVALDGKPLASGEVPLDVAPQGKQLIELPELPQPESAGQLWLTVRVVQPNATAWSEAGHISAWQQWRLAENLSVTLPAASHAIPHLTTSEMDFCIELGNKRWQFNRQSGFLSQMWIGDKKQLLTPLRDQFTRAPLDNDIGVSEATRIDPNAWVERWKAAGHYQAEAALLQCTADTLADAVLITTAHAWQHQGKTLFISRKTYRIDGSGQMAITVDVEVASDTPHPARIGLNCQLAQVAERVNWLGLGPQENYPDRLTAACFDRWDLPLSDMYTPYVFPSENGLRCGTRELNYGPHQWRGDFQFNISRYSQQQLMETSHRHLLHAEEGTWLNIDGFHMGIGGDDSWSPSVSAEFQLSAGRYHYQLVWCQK

Compound: O=C(CCl)N1N=C(c2ccco2)CC1c1cccs1 (stereo not drawn)
- EC50 [1]: 7.24 µM (active)
- IC50 [2]: 5.32 µM (active)
- IC50 [3]: > 20 µM (inactive)
- EC50 [4]: 16.7 µM (active)
- IC50 [5]: 4.77 µM (active)
- IC50 [6]: > 20 µM (inactive)
- AC50 [7]: 7.84 µM (active)
- AC50 [8]: 92.5 µM (active)
- EC50 [9]: 2.16 µM (active)

Compound: Cn1c(-[n+]2c(-c3ccccc3)cc(-c3ccccc3)cc2-c2ccccc2)nc2cc([N+](=O)[O-])ccc21
- IC50 [10]: 19.1 µM (active)
- IC50 [11]: 22.7 µM (active)

Compound: Cc1ccccc1NC(=N)Nc1ccccc1C
- IC50 [12]: 8.31 µM (active)
- IC50 [13]: 5.2 µM (active)
- IC50 [14]: > 66 µM (inactive)
- IC50 [15]: 19.8 µM (active)

Compound: CC(=O)Nc1ccc2nc3ccccc3nc2c1
- IC50 [12]: 14.8 µM (not active)
- IC50 [13]: 5.86 µM (active)
- IC50 [14]: > 66 µM (inactive)
- IC50 [15]: 44.9 µM (inactive)

Compound: O=C(C#Cc1ccccc1)c1ccc([N+](=O)[O-])cc1
- IC50 [16]: 9.68 µM (active)
- EC50 [17]: > 31.5 µM (inactive)
- IC50 [18]: 16.3 µM
- AC50 [19]: 1.38 µM (active)
